Experiments:
cocklebur = experiment: Test B pre/postemergence cocklebur; format: in vivo, Xanthium strumarium
Procedure, shortened: (§1)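 Test chemicals in a non-phytotoxic solvent mixture with surfactant were sprayed preemergence onto planted seeds and postemergence onto plants 2 to 18 cm tall (1- to 4-leaf stage). After twelve to sixteen days in a greenhouse, injury was visually rated against untreated controls from 0 (no effect) to 10 (complete control).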

morningglory = experiment: Test B pre/postemergence morningglory; format: in vivo, Ipomoea hederacea
Procedure, shortened: as §1

surinam grass = experiment: Test B pre/postemergence surinam grass; format: in vivo, Brachiaria decumbens
Procedure, shortened: as §1

velvetleaf = experiment: Test B pre/postemergence velvetleaf; format: in vivo, Abutilon theophrasti
Procedure, shortened: as §1

blackgrass = experiment: Test B pre/postemergence blackgrass; format: in vivo, Alopecurus myosuroides
Procedure, shortened: as §1

giant foxtail = experiment: Test B pre/postemergence giant foxtail; format: in vivo, Setaria faberii
Procedure, shortened: as §1

crabgrass = experiment: Test B pre/postemergence crabgrass; format: in vivo, Digitaria sanguinalis
Procedure, shortened: as §1

sugar beet = experiment: Test B pre/postemergence sugar beet; format: in vivo, Beta vulgaris
Procedure, shortened: as §1

soybean = experiment: Test B pre/postemergence soybean; format: in vivo, Glycine max
Procedure, shortened: as §1

rape = experiment: Test B pre/postemergence rape; format: in vivo, Brassica napus
Procedure, shortened: as §1

bedstraw = experiment: Test B pre/postemergence bedstraw; format: in vivo, Galium aparine; details: Rate 250 g/ha, Postemergence; scale of 0 to 10 where 0 is no effect and 10 is complete control
Procedure, shortened: as §1

wild oat = experiment: Test B pre/postemergence wild oat; format: in vivo, Avena fatua
Procedure, shortened: as §1

purple nutsedge = experiment: Test B pre/postemergence purple nutsedge; format: in vivo, Cyperus rotundus
Procedure, shortened: as §1

wheat = experiment: Test B pre/postemergence wheat; format: in vivo, Triticum aestivum
Procedure, shortened: as §1

corn = experiment: Test B pre/postemergence corn; format: in vivo, Zea mays
Procedure, shortened: as §1

pigweed = experiment: Test B pre/postemergence pigweed; format: in vivo, Amaranthus retroflexus
Procedure, shortened: as §1

[1] = Postemergence, Rate 62 g/ha, scale of 0 to 10, 0 is no effect, 10 is complete control
[2] = Postemergence, Rate 125 g/ha, scale 0 to 10, 0 is no effect, 10 is complete control
[3] = Postemergence, Rate 500 g/ha, scale 0 to 10, 0 is no effect, 10 is complete control
[4] = Preemergence, Rate 62 g/ha, scale of 0 to 10 where 0 is no effect and 10 is complete control
[5] = Preemergence, Rate 125 g/ha, scale 0 to 10, 0 is no effect, 10 is complete control
[6] = Preemergence, Rate 500 g/ha, scale of 0 to 10 where 0 is no effect and 10 is complete control
[7] = Rate 250 g/ha, Postemergence, scale of 0 to 10 where 0 is no effect and 10 is complete control

CCC(=O)Cn1c(=O)on(C(=O)N(c2ccc(F)cc2F)C(C)C)c1=O [Compound 524]
Cocklebur plant response rating (cocklebur; [1]): 0 | Cocklebur plant response rating (cocklebur; [2]): 0 | Plant response rating, Cocklebur (cocklebur; [3]): 3 | Plant response rating, Cocklebur (cocklebur; [4]): 0 | Cocklebur plant response rating (cocklebur; [5]): 0 | Cocklebur plant response rating (0 to 10 scale) (cocklebur; Preemergence, Rate 250 g/ha): 0 | Cocklebur plant response rating (cocklebur; [6]): 2 | Plant response rating, Cocklebur (cocklebur; [7]): 0 | Morningglory plant response rating (morningglory; [1]): 0 | Morningglory plant response rating (morningglory; [2]): 2 | Plant response rating, Morningglory (morningglory; [3]): 2 | Plant response rating, Morningglory (morningglory; [4]): 0 | Morningglory plant response rating (morningglory; [5]): 0 | Morningglory plant response rating (0 to 10 scale) (morningglory; Preemergence, Rate 250 g/ha): 2 | Morningglory plant response rating (morningglory; [6]): 2 | Plant response rating, Morningglory (morningglory; [7]): 2 | B. signalgrass plant response rating (surinam grass; [1]): 0 | B. signalgrass plant response rating (surinam grass; [2]): 0 | Plant response rating, B. signalgrass (surinam grass; [3]): 9 | Plant response rating, B. signalgrass (surinam grass; [4]): 0 | B. signalgrass plant response rating (surinam grass; [5]): 0 | B. signalgrass plant response rating (0 to 10 scale, 0 is no effect, 10 is complete control) (surinam grass; Preemergence, Rate 250 g/ha): 2 | Plant response rating, B. signalgrass (surinam grass; [7]): 2 | Velvetleaf plant response rating (velvetleaf; [1]): 0 | Velvetleaf plant response rating (velvetleaf; [2]): 0 | Plant response rating, Velvetleaf (velvetleaf; [3]): 6 | Plant response rating, Velvetleaf (velvetleaf; [4]): 0 | Velvetleaf plant response rating (velvetleaf; [5]): 3 | Velvetleaf plant response rating (0 to 10 scale) (velvetleaf; Preemergence, Rate 250 g/ha): 4 | Velvetleaf plant response rating (velvetleaf; [6]): 4 | Plant response rating, Velvetleaf (velvetleaf; [7]): 5 | Blackgrass plant response rating (blackgrass; [1]): 0 | Blackgrass plant response rating (blackgrass; [2]): 2 | Plant response rating, Blackgrass (blackgrass; [3]): 8 | Plant response rating, Blackgrass (blackgrass; [4]): 4 | Blackgrass plant response rating (blackgrass; [5]): 4 | Blackgrass plant response rating (0 to 10 scale) (blackgrass; Preemergence, Rate 250 g/ha): 4 | Plant response rating, Blackgrass (blackgrass; [7]): 9 | Giant foxtail plant response rating (giant foxtail; [1]): 4 | Giant foxtail plant response rating (giant foxtail; [2]): 8 | Plant response rating, Giant foxtail (giant foxtail; [3]): 9 | Plant response rating, Giant foxtail (giant foxtail; [4]): 9 | Giant foxtail plant response rating (giant foxtail; [5]): 9 | Giant foxtail plant response rating (0 to 10 scale) (giant foxtail; Preemergence, Rate 250 g/ha): 9 | Giant foxtail plant response rating (giant foxtail; [6]): 10 | Plant response rating, Giant foxtail (giant foxtail; [7]): 8 | Crabgrass plant response rating (crabgrass; [1]): 3 | Crabgrass plant response rating (crabgrass; [2]): 8 | Plant response rating, Crabgrass (crabgrass; [3]): 9 | Plant response rating, Crabgrass (crabgrass; [4]): 9 | Crabgrass plant response rating (crabgrass; [5]): 10 | Crabgrass plant response rating (0 to 10 scale) (crabgrass; Preemergence, Rate 250 g/ha): 9 | Crabgrass plant response rating (crabgrass; [6]): 10 | Plant response rating, Crabgrass (crabgrass; [7]): 8 | Sugarbeets plant response rating (sugar beet; [1]): 0 | Sugarbeets plant response rating (sugar beet; [2]): 0 | Plant response rating, Sugarbeets (sugar beet; [3]): 0 | Plant response rating, Sugarbeets (sugar beet; [4]): 0 | Sugarbeets plant response rating (sugar beet; [5]): 3 | Sugarbeets plant response rating (0 to 10 scale) (sugar beet; Preemergence, Rate 250 g/ha): 6 | Plant response rating, Sugarbeets (sugar beet; [7]): 0 | Soybean plant response rating (soybean; [1]): 3 | Plant response rating, Soybean (soybean; [3]): 4 | Plant response rating, Soybean (soybean; [4]): 0 | Soybean plant response rating (soybean; [5]): 0 | Soybean plant response rating (0 to 10 scale) (soybean; Preemergence, Rate 250 g/ha): 0 | Soybean plant response rating (soybean; [6]): 0 | Plant response rating, Soybean (soybean; [7]): 3 | Rape plant response rating (rape; [1]): 0 | Rape plant response rating (rape; [2]): 0 | Plant response rating, Rape (rape; [3]): 3 | Plant response rating, Rape (rape; [4]): 2 | Rape plant response rating (rape; [5]): 2 | Rape plant response rating (0 to 10 scale) (rape; Preemergence, Rate 250 g/ha): 7 | Plant response rating, Rape (rape; [7]): 0 | Plant response rating, Bedstraw (bedstraw): 9 | Wild oats plant response rating (wild oat; [1]): 0 | Wild oats plant response rating (wild oat; [2]): 0 | Plant response rating, Wild oats (wild oat; [3]): 5 | Plant response rating, Wild oats (wild oat; [4]): 7 | Wild oats plant response rating (wild oat; [5]): 9 | Wild oats plant response rating (0 to 10 scale) (wild oat; Preemergence, Rate 250 g/ha): 8 | Plant response rating, Wild oats (wild oat; [7]): 0 | Plant response rating, Nutsedge (purple nutsedge; [3]): 0 | Plant response rating, Nutsedge (purple nutsedge; [4]): 0 | Nutsedge plant response rating (purple nutsedge; [5]): 0 | Nutsedge plant response rating (0 to 10 scale) (purple nutsedge; Preemergence, Rate 250 g/ha): 0 | Nutsedge plant response rating (purple nutsedge; [6]): 4 | Wheat plant response rating (wheat; [1]): 0 | Wheat plant response rating (wheat; [2]): 0 | Plant response rating, Wheat (wheat; [3]): 5 | Plant response rating, Wheat (wheat; [4]): 0 | Wheat plant response rating (wheat; [5]): 5 | Wheat plant response rating (0 to 10 scale) (wheat; Preemergence, Rate 250 g/ha): 7 | Plant response rating, Wheat (wheat; [7]): 0 | Corn plant response rating (corn; [1]): 0 | Corn plant response rating (corn; [2]): 2 | Plant response rating, Corn (corn; [3]): 5 | Plant response rating, Corn (corn; [4]): 0 | Corn plant response rating (corn; [5]): 0 | Corn plant response rating (0 to 10 scale) (corn; Preemergence, Rate 250 g/ha): 7 | Corn plant response rating (corn; [6]): 9 | Plant response rating, Corn (corn; [7]): 3 | Redroot pigweed plant response rating (pigweed; [1]): 0 | Redroot pigweed plant response rating (pigweed; [2]): 0 | Plant response rating, Redroot pigweed (pigweed; [3]): 0 | Plant response rating, Redroot pigweed (pigweed; [4]): 8 | Redroot pigweed plant response rating (pigweed; [5]): 8 | Redroot pigweed plant response rating (0 to 10 scale) (pigweed; Preemergence, Rate 250 g/ha): 8 | Plant response rating, Redroot pigweed (pigweed; [7]): 0

Reference: patent US6737383B1, “Herbicidal oxadiazolidines” (priority 1999, dated 2004)
